7 compounds from ChEMBL document CHEMBL1201862, “PubChem BioAssay data set” (2004) can be followed below.

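How tested: cells in 96-well plates exposed to compound for 48 hours at five concentrations. GI50 marks 50% less growth.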 The source made the active and inactive calls. Cut-off read from the data, not from the text of the source: active = GI50 up to about 1.1 µM and inactive = higher. Bounds are passed on as bounds.

Test systems include NCI-H522; TK-10; OVCAR-5; OVCAR-8; HCT-15; NCI-H226; CAKI-1; OVCAR-3; K562; NCI-H23; HCC 2998; SNB-19; SNB-75; U-251; NCI-H460; SR; SF-295; MOLT-4; 786-0; IGROV-1.
What all share (test): NCI-60 cell line screen, 48 h

Consider `O=C(c1ccccc1)c1c(CC(O)c2ccccn2)n(C(=O)c2ccccc2)c2ccccc12` (stereo not given), for which the GI50 in the test on NCI-H522 is 20.3 µM (inactive); in the test with TK-10 it was 38.4 µM (inactive); with OVCAR-5, 20.7 µM (inactive); in the test on OVCAR-8, 29.2 µM (inactive); in the test on HCT-15 it was 23.4 µM; in the test on NCI-H226, 20.5 µM (inactive). The GI50 was 36.6 µM (inactive) in the test on CAKI-1; 17.5 µM (inactive) with OVCAR-3; 27.9 µM (inactive) in the test with K562; 22.1 µM (inactive) with NCI-H23; 31.5 µM (inactive) in the test with HCC 2998; 34.1 µM (inactive) in the test with SNB-19. The GI50 in the test on SNB-75 is 8.04 µM (inactive); in the test on U-251, 25.1 µM (inactive); in the test with NCI-H460 it was 21.5 µM (inactive); in the test on SR, 15.1 µM (inactive); in the test with SF-295, 20.2 µM (inactive); with MOLT-4, 17.1 µM (inactive). In addition, the GI50 in the test with 786-0 was 26.1 µM (inactive); with IGROV-1, 23.7 µM (inactive).

Regarding `O=c1c2cc(-c3ccccc3)sc2nc2n1N=C(c1ccccc1)CS2`, the GI50 in the test on NCI-H522 was 22.4 µM (inactive); in the test with TK-10, 40.3 µM (inactive); in the test on OVCAR-5, > 100 µM (inactive); with OVCAR-8, 32.1 µM (inactive); in the test with HCT-15, 84.3 µM; in the test with NCI-H226, 30.6 µM (inactive). Moreover, the GI50 with CAKI-1 was 13.5 µM (inactive); with OVCAR-3, 18.2 µM (inactive); in the test with K562 it was > 100 µM (inactive); in the test on NCI-H23, 76 µM (inactive); with HCC 2998, 36.5 µM (inactive); in the test on SNB-75, 19.1 µM (inactive). In addition, the GI50 in the test on U-251 was 19.7 µM (inactive); in the test with NCI-H460, 25.1 µM (inactive); with SR, > 100 µM (inactive); with SF-295, 15.5 µM (inactive); with MOLT-4, > 100 µM (inactive); in the test on 786-0, 13.8 µM (inactive). The GI50 with IGROV-1 was > 10 µM (inactive).

Take `Cc1c[n+]2c3ccccc3c3ccccc3c2s1.[O-][Cl+3]([O-])([O-])[O-]`: the GI50 was 1.73 µM (inactive) with NCI-H522; 1.39 µM (inactive) in the test on TK-10; 1.77 µM (inactive) with OVCAR-5; 3.3 µM (inactive) with OVCAR-8; over 100 µM in the test with HCT-15; 0.536 µM (active) with NCI-H226. For the same compound, the GI50 with CAKI-1 was 3.2 µM (inactive); in the test on OVCAR-3 it was 0.787 µM (active); in the test with K562, 4.29 µM (inactive); in the test with NCI-H23 it was 0.422 µM (active); in the test with HCC 2998 it was 3.2 µM (inactive); with SNB-19, 3.36 µM (inactive). For the same compound, the GI50 in the test on SNB-75 was 3.31 µM (inactive); in the test with U-251 it was 0.368 µM (active); with NCI-H460, 5.94 µM (inactive); with SR, 3.33 µM (inactive); with SF-295, 5.97 µM (inactive); in the test on MOLT-4, 2.03 µM (inactive). Also, the GI50 in the test with 786-0 was 3.37 µM (inactive); with IGROV-1, 29.4 µM (inactive).

`C=C1C[C@]23C[C@@]1(O)CC[C@H]2[C@@]12C=C[C@H](O)[C@@](C)(C(=O)O1)[C@H]2[C@@H]3C(=O)O` [GIBBERELLIN A3]: the GI50 with NCI-H522 is > 100 µM (inactive); in the test on TK-10, > 100 µM (inactive); in the test with OVCAR-5 it was > 100 µM (inactive); in the test on HCT-15, over 100 µM; with NCI-H226, > 100 µM (inactive); with CAKI-1, > 100 µM (inactive). For the same compound, the GI50 in the test on OVCAR-3, in the test with K562, in the test with NCI-H23, in the test with HCC 2998, in the test on SNB-19 and with SNB-75 was > 100 µM (inactive) each time. In addition, the GI50 with U-251, in the test on NCI-H460, in the test on SR, with SF-295, with MOLT-4 and in the test with 786-0 was > 100 µM (inactive) in each case. For the same compound, in the test on IGROV-1, the GI50 is > 100 µM (inactive).

For the compound `COc1cccc(-c2cc(=O)c3cc(N4CCCCC4)ccc3[nH]2)c1`, the GI50 is < 0.0177 µM (active) with NCI-H522; 79.3 µM (inactive) in the test on TK-10; 0.026 µM (active) in the test with OVCAR-8; under 0.0167 µM with HCT-15; 0.0127 µM (active) in the test on NCI-H226; < 0.01 µM (active) in the test with CAKI-1. The GI50 was < 0.01 µM (active) in the test on OVCAR-3; < 0.01 µM (active) with K562; 0.0204 µM (active) in the test on NCI-H23; 0.0434 µM (active) with HCC 2998; < 0.0117 µM (active) in the test on SNB-19; 0.6 µM (active) with SNB-75. Moreover, the GI50 is < 0.0147 µM (active) with U-251; < 0.0199 µM (active) with NCI-H460; < 0.01 µM (active) in the test with SR; 0.0119 µM (active) in the test on SF-295; 0.024 µM (active) in the test with MOLT-4; < 0.0119 µM (active) in the test on 786-0. Also, in the test on IGROV-1, the GI50 is 0.0397 µM (active).

Regarding `O=C(c1ccco1)C1CC(c2ccc3ccccc3c2O)=NN1` (stereo not given), the GI50 with NCI-H522 is > 100 µM (inactive); in the test with TK-10 it was > 100 µM (inactive); in the test with OVCAR-5 it was > 100 µM (inactive); in the test on OVCAR-8 it was 83.2 µM (inactive); with HCT-15 it was 50.6 µM; in the test on NCI-H226, > 100 µM (inactive). In addition, the GI50 was > 100 µM (inactive) in the test with CAKI-1; 57.3 µM (inactive) with OVCAR-3; 38.6 µM (inactive) in the test with K562; > 100 µM (inactive) in the test on NCI-H23; > 100 µM (inactive) with HCC 2998; > 100 µM (inactive) in the test with SNB-75. The GI50 is > 100 µM (inactive) in the test on U-251; > 100 µM (inactive) with NCI-H460; 20.2 µM (inactive) in the test on SR; 55.8 µM (inactive) in the test on SF-295; 36.7 µM (inactive) in the test on MOLT-4; 98.9 µM (inactive) with 786-0. The GI50 in the test with IGROV-1 was > 100 µM (inactive).

Turning to `O=c1c2cccnc2ncn1CCN1CCCC1`, the GI50 with NCI-H522, in the test on TK-10, with OVCAR-5, with OVCAR-8, with NCI-H226 and in the test with CAKI-1 was > 100 µM (inactive) each time. Further, the GI50 in the test with OVCAR-3, with K562, in the test with NCI-H23, in the test with HCC 2998, in the test with SNB-19 and in the test with SNB-75 was > 100 µM (inactive) each time. For the same compound, the GI50 with U-251, in the test on NCI-H460, in the test with SR, with SF-295, in the test on MOLT-4 and with 786-0 was > 100 µM (inactive) throughout. For the same compound, the GI50 in the test on IGROV-1 was > 100 µM (inactive).
